Literature values, collected in patent US20210308030A1, “SYSTEM, METHODS AND KITS FOR DIAGNOSIS AND TREATMENT OF FEMALE PATTERN HAIR LOSS” (Follea International, priority 2020, published 2021).

Columns and labels:
[1] = system: FPHL patients; conditions: both 2% and 5% minoxidil

| Compound | water solubility | risk for adverse events [1] |
| --- | --- | --- |
| O=c1c(-c2ccc(O)cc2)coc2cc(O)ccc12 [daidzein] | poor |  |
| O=c1c(-c2ccc(O)cc2)coc2cc(O)cc(O)c12 [genistein] | poor |  |
| Nc1cc(N2CCCCC2)nc(N)[n+]1[O-] [minoxidil] |  | low |
